tested on: PBMCs; assay: LPS-induced TNFα/IL-8 release in PBMC cells; type: cell-based; conditions: Homo sapiens, assay (b), read-out: IC50 Values for Inhibition of Cytokine Release PBMCs IL-8
Experimental: Peripheral blood mononuclear cells (PBMCs) from healthy subjects are separated from whole blood using a density gradient (Lymphoprep, Axis-Shield Healthcare). The PBMCs are seeded in 96 well plates and treated with compounds at the desired concentration for 2 hours before addition of 1 ng/mL LPS (Escherichia Coli 0111:B4 from Sigma Aldrich) for 24 hours under normal tissue culture conditions (37° C., 5% CO2). The supernatant is harvested for determination of IL-8 and TNFα concentrations by sandwich ELISA (Duo-set, R&D systems) and read on the fluorescence microplate reader (Varioskan® Flash, ThermoFisher Scientific).

SMILES	IC50
COCCOCCOCCOc1cc(Nc2nccc(Oc3ccc(NC(=O)Nc4cc(C(C)(C)C)cc(C(=O)NCc5ccccc5)c4OC)c4ccccc34)n2)cc(OC)c1 [Example 38, N-Benzyl-5-(tert-butyl)-2-methoxy-3-(3-(4-((2-((3-methoxy-5-(2-(2-(2-methoxyethoxy)-ethoxy)ethoxy)phenyl)amino)pyrimidin-4-yl)oxy)naphthalen-1-yl)ureido)benzamide]	6.3 nM
COCCOCCOCCOc1cc(Nc2cc(Oc3ccc(NC(=O)Nc4cc(C(C)(C)C)cc(C(=O)NCCN)c4OC)c4ccccc34)ccn2)cc(OC)c1 [83(g), N-(2-aminoethyl)-5-(tert-butyl)-2-methoxy-3-(3-(4-((2-((3-methoxy-5-(2-(2-(2-methoxy-ethoxy)ethoxy)ethoxy)phenyl)amino)pyridin-4-yl)oxy)naphthalen-1-yl)ureido)benzamide]	7.3 nM
COc1cc(Nc2nccc(Oc3ccc(NC(=O)Nc4cc(C(C)(C)C)cc(NS(C)(=O)=O)c4OC)c4ccccc34)n2)cc(C(=O)NCCN2CCN(C)CC2)c1 [85(e), 3-[[4-[[4-[[5-tert-Butyl-3-(methanesulfonamido)-2-methoxyphenyl]-carbamoylamino]-1-naphthyl]oxy]pyrimidin-2-yl]amino]-5-methoxy-N-[2-(4-methylpiperazin-1-yl)ethyl]benzamide]	1.7 nM
C#Cc1cc(Nc2nccc(Oc3ccc(NC(=O)Nc4cc(C(C)(C)C)cc(C(=O)NC)c4OC)c4ccccc34)n2)cc(C(=O)NCCN2CCOCC2)c1 [Example 9, 5-(tert-Butyl)-3-(3-(4-((2-((3-ethynyl-5-((2-morpholinoethyl)carbamoyl)phenyl)amino)-pyrimidin-4-yl)oxy)naphthalen-1-yl)ureido)-2-methoxy-N-methylbenzamide]	1.2 nM
C#Cc1cc(Nc2nccc(Oc3ccc(NC(=O)Nc4cc(C(C)(C)C)cc(C(N)=O)c4OC)c4ccccc34)n2)cc(C(=O)NCCN2CCOCC2)c1 [85(g), 5-tert-Butyl-3-[[4-[2-[3-ethynyl-5-(2-morpholinoethylcarbamoyl)anilino]-pyrimidin-4-yl]oxy-1-naphthyl]carbamoylamino]-2-methoxy-benzamide]	1 nM
COc1cc(Nc2cc(Oc3ccc(NC(=O)Nc4cc(C(C)(C)C)cc(NS(C)(=O)=O)c4OC)c4ccccc34)ccn2)cc(C(=O)NCCN2CCNCC2)c1 [85(q), 3-[[4-[[4-[[5-tert-Butyl-3-(methanesulfonamido)-2-methoxyphenyl]-carbamoylamino]-1-naphthyl]oxy]-2-pyridyl]amino]-5-methoxy-N-(2-piperazin-1-ylethyl)benzamide]	6.1 nM
COCCOCCOCCOCCNC(=O)c1cc(Nc2cc(Oc3ccc(NC(=O)Nc4cc(C(C)(C)C)cc(NS(C)(=O)=O)c4OC)c4ccccc34)ccn2)cc(OC)c1 [85(v), 3-[[4-[[4-[[5-tert-Butyl-3-(methanesulfonamido)-2-methoxyphenyl]-carbamoylamino]-1-naphthyl]oxy]-2-pyridyl]amino]-5-methoxy-N-[2-[2-[2-(2-methoxyethoxy)ethoxy]ethoxy]-ethyl]benzamide]	0.4 nM
C#Cc1cc(Nc2nccc(Oc3ccc(NC(=O)Nc4cc(C(C)(C)C)cc(C(=O)NC)c4OC)c4ccccc34)n2)cc(C(=O)N[C@H](C)CN2CCOCC2)c1 [Example 61, (R)-5-(tert-Butyl)-3-(3-(4-((2-((3-ethynyl-5-((1-morpholinopropan-2-yl)carbamoyl)phenyl)amino)pyrimidin-4-yl)oxy)naphthalen-1-yl)ureido)-2-methoxy-N-methylbenzamide]	2.1 nM
COc1cc(Nc2cc(Oc3ccc(NC(=O)Nc4cc(C(C)(C)C)cc(NS(C)(=O)=O)c4OC)c4ccccc34)ccn2)cc(C(=O)NCCN2CCC(O)CC2)c1 [85(w), 3-[[4-[[4-[[5-tert-Butyl-3-(methanesulfonamido)-2-methoxyphenyl]-carbamoylamino]-1-naphthyl]oxy]-2-pyridyl]amino]-N-[2-(4-hydroxy-1-piperidyl)ethyl]-5-methoxybenzamide]	2.9 nM
COc1c(NC(=O)Nc2ccc(Oc3ccnc(Nc4ccccc4)c3)c3ccccc23)cc(C(C)(C)C)cc1NS(=O)(=O)N1CCOCC1 [83(f), N-(5-(tert-butyl)-2-methoxy-3-(3-(4-((2-(phenylamino)pyridin-4-yl)oxy)naphthalen-1-yl)ureido)phenyl)morpholine-4-sulfonamide]	13.1 nM
COCCOCCOCCOc1cc(Nc2nccc(Oc3ccc(NC(=O)Nc4cc(C(C)(C)C)cc5nc(C)oc45)c4ccccc34)n2)cc(OC)c1 [Example 64, 1-(5-(tert-Butyl)-2-methylbenzo[d]oxazol-7-yl)-3-(4-((2-((3-methoxy-5-(2-(2-(2-methoxy-ethoxy)ethoxy)ethoxy)phenyl)amino)pyrimidin-4-yl)oxy)naphthalen-1-yl)urea]	10.5 nM
COCCOCCOCCOc1cc(Nc2cc(Oc3ccc(NC(=O)Nc4cc(C(C)(C)C)cc(C(=O)NC5COC5)c4OC)c4ccccc34)ccn2)cc(OC)c1 [Example 77, 5-(tert-Butyl)-2-methoxy-3-(3-(4-((2-((3-methoxy-5-(2-(2-(2-methoxyethoxy)ethoxy)ethoxy)-phenyl)amino)pyridin-4-yl)oxy)naphthalen-1-yl)ureido)-N-(oxetan-3-yl)benzamide]	2 nM
CCNC(=O)c1cc(C(C)(C)C)cc(NC(=O)Nc2ccc(Oc3ccnc(Nc4cc(OC)cc(OCCOCCOCCOC)c4)n3)c3ccccc23)c1OC [Example 41]	4.5 nM
COc1cc(Nc2cc(Oc3ccc(NC(=O)Nc4cc(C(C)(C)C)cc(NS(C)(=O)=O)c4OC)c4ccccc34)ccn2)cc(C(=O)NCCN2CCCCC2)c1 [83(e), 3-((4-((4-(3-(5-(tert-butyl)-2-methoxy-3-(methylsulfonamido)phenyl)ureido)naphthalen-1-yl)oxy)pyridin-2-yl)amino)-5-methoxy-N-(2-(piperidin-1-yl)ethyl)benzamide]	8 nM
COCCNC(=O)c1cc(C(C)(C)C)cc(NC(=O)Nc2ccc(Oc3ccnc(Nc4cc(OC)cc(OCCOCCOCCOC)c4)n3)c3ccccc23)c1OC [Example 43, 5-(tert-Butyl)-2-methoxy-3-(3-(4-((2-((3-methoxy-5-(2-(2-(2-methoxyethoxy)ethoxy)-ethoxy)phenyl)amino)pyrimidin-4-yl)oxy)naphthalen-1-yl)ureido)-N-(2-methoxyethyl)-benzamide]	2 nM
COc1cc(Nc2cc(Oc3ccc(NC(=O)Nc4cc(C(C)(C)C)cc(NS(C)(=O)=O)c4OC)c4ccccc34)ccn2)cc(C(=O)NCCOCCOCCO)c1 [85(r), 3-[[4-[[4-[[5-tert-Butyl-3-(methanesulfonamido)-2-methoxyphenyl]-carbamoylamino]-1-naphthyl]oxy]-2-pyridyl]amino]-N-[2-[2-(2-hydroxyethoxy)ethoxy]-ethyl]-5-methoxy-benzamide]	0.6 nM
COc1cc(Nc2nccc(Oc3ccc(NC(=O)Nc4cc(C(C)(C)C)cc(NS(C)(=O)=O)c4OC)c4ccccc34)n2)cc(OCCOCCOCCC(=O)O)c1 [Example 30, 3-(2-(2-(3-((4-((4-(3-(5-(tert-Butyl)-2-methoxy-3-(methylsulfonamido)phenyl)ureido)-naphthalen-1-yl)oxy)pyrimidin-2-yl)amino)-5-methoxyphenoxy)ethoxy)ethoxy)propanoic acid]	5.7 nM
COc1c(NC(=O)Nc2ccc(Oc3ccnc(Nc4ccccc4)c3)c3ccccc23)cc(C(C)(C)C)cc1C(=O)NC1CCN(C)CC1 [84(b), 3-[[4-[(2-Anilino-4-pyridyl)oxy]-1-naphthyl]carbamoylamino]-5-tert-butyl-2-methoxy-N-(1-methyl-4-piperidyl)benzamide]	9.1 nM
COCCOCCOCCOc1cc(Nc2nccc(Oc3ccc(NC(=O)Nc4cc(C(C)(C)C)cc(C(=O)NC5CC5)c4OC)c4ccccc34)n2)cc(OC)c1 [Example 33, 5-(tert-Butyl)-N-cyclopropyl-2-methoxy-3-(3-(4-((2-((3-methoxy-5-(2-(2-(2-methoxy-ethoxy)ethoxy)ethoxy)phenyl)amino)pyrimidin-4-yl)oxy)naphthalen-1-yl)ureido)-benzamide]	4.2 nM
COc1cc(Nc2cc(Oc3ccc(NC(=O)Nc4cc(C(C)(C)C)cc(NS(C)(=O)=O)c4OC)c4ccccc34)ccn2)cc(C(=O)NCCN2CC[S+]([O-])CC2)c1 [85(j), 3-[[4-[[4-[[5-tert-Butyl-3-(methanesulfonamido)-2-methoxyphenyl]-carbamoylamino]-1-naphthyl]oxy]-2-pyridyl]amino]-5-methoxy-N-[2-(1-oxo-1,4-thiazinan-4-yl)ethyl]benzamide]	2.1 nM
COCCOCCOCCOc1cc(Nc2nccc(Oc3ccc(NC(=O)Nc4cc(C(C)(C)C)cc(C(=O)NCC(=O)O)c4OC)c4ccccc34)n2)cc(OC)c1 [Example 44, 2-(5-(tert-Butyl)-2-methoxy-3-(3-(4-((2-((3-methoxy-5-(2-(2-(2-methoxyethoxy)ethoxy)-ethoxy)phenyl)amino)pyrimidin-4-yl)oxy)naphthalen-1-yl)ureido)benzamido)acetic acid]	86.8 nM
COc1c(NC(=O)Nc2ccc(Oc3ccnc(Nc4ccccc4)c3)c(F)c2F)cc(C(C)(C)C)cc1C(=O)NC1COC1 [Example 82, 5-(tert-Butyl)-3-(3-(2,3-difluoro-4-((2-(phenylamino)pyridin-4-yl)oxy)phenyl)ureido)-2-methoxy-N-(oxetan-3-yl)benzamide]	6.6 nM
C#Cc1cc(Nc2nccc(Oc3ccc(NC(=O)Nc4cc(C(C)(C)C)cc(C(=O)NC)c4OC)c4ccccc34)n2)cc(C(=O)N[C@@H](C)CN2CCOCC2)c1 [Example 60, (S)-5-(tert-Butyl)-3-(3-(4-((2-((3-ethynyl-5-((1-morpholinopropan-2-yl)carbamoyl)phenyl)amino)pyrimidin-4-yl)oxy)naphthalen-1-yl)ureido)-2-methoxy-N-methylbenzamide]	2 nM
COc1c(NC(=O)Nc2ccc(Oc3ccnc(Nc4ccccc4)c3)c3ccccc23)cc(C(C)(C)C)cc1C(=O)N[C@@H]1CCOC1 [84(c), 3-[[4-[(2-Anilino-4-pyridyl)oxy]-1-naphthyl]carbamoylamino]-5-tert-butyl-2-methoxy-N-[(3R)-tetrahydrofuran-3-yl]benzamide]	21.8 nM
